Data on 23 compounds can be found in patent publication US20090312349A1, “ANTI-INFLAMMATORY MEDICAMENTS” (priority 2004, published 2009).

Structures are written as SMILES.

Holding throughout (assay type): biochemical
For one assay, the target named is T1, Abl kinase (Homo sapiens, UniProt P00519).
T1 sequence (P00519 229-512): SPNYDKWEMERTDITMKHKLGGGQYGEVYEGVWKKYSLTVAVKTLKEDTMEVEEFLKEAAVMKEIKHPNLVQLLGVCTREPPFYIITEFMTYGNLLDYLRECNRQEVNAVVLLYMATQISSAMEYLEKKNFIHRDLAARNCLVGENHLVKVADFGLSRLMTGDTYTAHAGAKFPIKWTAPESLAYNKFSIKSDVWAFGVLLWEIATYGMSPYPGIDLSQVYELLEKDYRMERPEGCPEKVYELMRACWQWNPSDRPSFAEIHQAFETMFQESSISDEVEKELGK
Kind of assay: Abl kinase assay A1. Conditions: read-out: Results, % @ concentration μM, Method A1; @ 10 μM. How it is done: (§1) IC50 values were calculated from a series of percent inhibition values determined at a range of inhibitor concentrations using software routines as implemented in the GraphPad Prism software package.

Another assay concerns the target B-Raf(V599E) kinase (Homo sapiens, UniProt P15056, V600E). Kind of assay: B-Raf(V599E) kinase assay B1. The note with it: for IC50: Method B1, construct 1. As to the method: The test compounds were incubated with the reaction mixture at 30° C. for 2 h. […] The reaction rate was calculated using the 1.5 h to 2.5 h time frame. […] IC50 values were calculated from a series of percent inhibition values determined at a range of inhibitor concentrations using software routines as implemented in the GraphPad Prism software package.

The target in assay [1] is T2, phospho p-38 alpha kinase (Homo sapiens, UniProt Q16539).
T2 construct: purchased Panvera
T2 sequence (Q16539 whole entry): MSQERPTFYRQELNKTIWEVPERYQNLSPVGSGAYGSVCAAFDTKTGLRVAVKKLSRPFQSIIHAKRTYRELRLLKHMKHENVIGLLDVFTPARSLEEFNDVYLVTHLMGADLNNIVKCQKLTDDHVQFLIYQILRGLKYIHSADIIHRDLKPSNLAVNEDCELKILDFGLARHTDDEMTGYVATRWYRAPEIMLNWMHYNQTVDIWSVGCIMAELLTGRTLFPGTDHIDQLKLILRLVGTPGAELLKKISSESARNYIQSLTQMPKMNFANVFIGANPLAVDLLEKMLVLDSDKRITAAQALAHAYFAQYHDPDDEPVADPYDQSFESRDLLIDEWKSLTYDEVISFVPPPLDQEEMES
Kind of assay: P-38 alpha kinase assay (spectrophotometric, pyruvate kinase/lactate dehydrogenase coupled). The note with it: Table 5; for IC50: assay not named, read-out: uM.

The target in the next assay is KDR kinase (Homo sapiens, UniProt P35968, DEL940-989/E990V). Kind of assay: KDR kinase assay K1. Conditions: read-out: Results, % @ concentration μM, Method K1; @ 10 μM. How it is done:
as §1

Assay [2] has as its target phosphorylated p-38-alpha kinase (Homo sapiens, UniProt Q16539). Kind of assay: P-38 alpha kinase assay P1. The note with it: Method P1; for IC50: 2 h pre-incubation before ATP.
Setting [3] is: read-out: Results, % @ concentration μM.

Sequence of phosphorylated p-38-alpha kinase (Q16539 1-360 isoform Q16539-2): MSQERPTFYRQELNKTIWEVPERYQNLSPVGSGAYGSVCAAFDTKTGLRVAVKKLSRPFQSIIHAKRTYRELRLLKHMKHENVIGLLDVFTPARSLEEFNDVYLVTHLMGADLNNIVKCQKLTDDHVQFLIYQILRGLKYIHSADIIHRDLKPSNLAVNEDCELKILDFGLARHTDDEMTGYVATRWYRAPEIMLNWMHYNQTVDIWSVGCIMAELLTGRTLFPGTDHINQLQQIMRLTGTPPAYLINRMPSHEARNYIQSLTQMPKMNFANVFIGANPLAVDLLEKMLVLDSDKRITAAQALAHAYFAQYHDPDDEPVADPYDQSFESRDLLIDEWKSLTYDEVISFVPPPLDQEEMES
Sequence of KDR kinase (P35968 with tags, fused parts or gaps DEL940-989/E990V): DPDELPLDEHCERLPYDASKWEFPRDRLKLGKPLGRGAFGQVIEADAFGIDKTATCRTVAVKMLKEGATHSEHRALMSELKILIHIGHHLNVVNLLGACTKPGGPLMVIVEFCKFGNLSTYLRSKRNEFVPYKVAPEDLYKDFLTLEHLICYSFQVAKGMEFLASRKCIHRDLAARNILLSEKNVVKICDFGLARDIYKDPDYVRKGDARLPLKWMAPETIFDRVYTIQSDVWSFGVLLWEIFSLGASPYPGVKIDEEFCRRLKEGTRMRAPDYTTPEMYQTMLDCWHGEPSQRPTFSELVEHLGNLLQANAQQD
Sequence of B-Raf(V599E) kinase (P15056 with tags, fused parts or gaps V600E): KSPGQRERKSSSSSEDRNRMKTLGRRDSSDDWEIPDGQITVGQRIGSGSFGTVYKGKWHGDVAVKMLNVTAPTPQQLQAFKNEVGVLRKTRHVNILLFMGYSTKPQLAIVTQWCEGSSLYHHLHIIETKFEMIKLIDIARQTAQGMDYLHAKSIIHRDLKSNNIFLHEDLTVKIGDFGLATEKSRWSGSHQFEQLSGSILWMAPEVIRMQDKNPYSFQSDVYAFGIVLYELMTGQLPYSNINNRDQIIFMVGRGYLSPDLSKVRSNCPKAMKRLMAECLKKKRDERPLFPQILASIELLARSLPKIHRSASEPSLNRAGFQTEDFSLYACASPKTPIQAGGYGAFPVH

Take `O=C(O)Cc1cccc(-n2nc(-c3ccc(F)cc3)cc2NC(=O)Nc2cccc(Cl)c2Cl)c1` [Example 431, 2-(3-(5-(3-(2,3-dichlorophenyl)ureido)-3-(4-fluorophenyl)-1H-pyrazol-1-yl)phenyl)acetic acid]: the inhibition at 10 µM at Abl kinase stood at 29%.

For `O=C(O)Cc1cccc(-n2nc(-c3cccs3)cc2NC(=O)Nc2cccc(Cl)c2Cl)c1` [Example 435, 2-(3-(5-(3-(2,3-dichlorophenyl)ureido)-3-(thiophen-2-yl)-1H-pyrazol-1-yl)phenyl)acetic acid], the IC50 against B-Raf(V599E) kinase came out at 0.16 µM.

Regarding `O=C(O)Cc1ccc(-n2nc(-c3ccccc3)cc2NC(=O)Nc2cccc(Cl)c2Cl)cc1` [Example 438, 2-(4-(5-(3-(2,3-dichlorophenyl)ureido)-3-phenyl-1H-pyrazol-1-yl)phenyl)acetic acid], in assay [1], the IC50 amounted to 1.3 µM. Besides, the inhibition at 10 µM at KDR kinase was found to be 39%.

Take `O=C(O)Cc1ccc(-n2nc(-c3ccccc3F)cc2NC(=O)Nc2cccc(Cl)c2Cl)cc1` [Example 440, 2-(4-(5-(3-(2,3-dichlorophenyl)ureido)-3-(2-fluorophenyl)-1H-pyrazol-1-yl)phenyl)acetic acid]: the IC50 in assay [1] amounted to 0.92 µM; in assay [2], 0.009 µM. The inhibition at 10 µM on KDR kinase turned out to be 56%.

`O=C(O)Cc1ccc(-n2nc(-c3cccs3)cc2NC(=O)Nc2cccc(Cl)c2Cl)cc1` [Example 442, 2-(4-(5-(3-(2,3-dichlorophenyl)ureido)-3-(thiophen-2-yl)-1H-pyrazol-1-yl)phenyl)acetic acid]: the IC50 in assay [1] came out at 3.01 µM. Besides, the inhibition at 10 µM at KDR kinase was determined as 25%. Moreover, on B-Raf(V599E) kinase (setting [3]), the inhibition at 1 µM was determined as 24%.

Consider `CC(C(=O)O)c1ccc(-n2nc(-c3cccs3)cc2NC(=O)Nc2cccc(Cl)c2Cl)cc1` (stereo not drawn) [Example 443, 2-(4-(5-(3-(2,3-dichlorophenyl)ureido)-3-(thiophen-2-yl)-1H-pyrazol-1-yl)phenyl)propanoic acid], for which the IC50 in assay [2] is 0.03 µM. Further, the inhibition at 10 µM at KDR kinase was found to be 33%. The inhibition at 1 µM on B-Raf(V599E) kinase (setting [3]) was 20%.

On to `O=C(O)Cc1ccc(-n2nc(-c3ccsc3)cc2NC(=O)Nc2cccc(Cl)c2Cl)cc1` [Example 444, 2-(4-(5-(3-(2,3-dichlorophenyl)ureido)-3-(thiophen-3-yl)-1H-pyrazol-1-yl)phenyl)acetic acid], for which the IC50 was 5 µM in assay [1] and 0.006 µM in assay [2]. Also, at B-Raf(V599E) kinase (setting [3]), the inhibition at 1 µM was 42%.

Turning to `NC(=O)Cc1cccc(-n2nc(-c3cccc(F)c3)cc2NC(=O)Nc2cccc(Cl)c2Cl)c1` [Example 449, 1-(1-(3-(2-amino-2-oxoethyl)phenyl)-3-(3-fluorophenyl)-1H-pyrazol-5-yl)-3-(2,3-dichlorophenyl)urea], the IC50 in assay [2] turned out to be 0.022 µM. Also, on KDR kinase, the inhibition at 10 µM was found to be 33%.

`NC(=O)Cc1cccc(-n2nc(-c3ccccc3F)cc2NC(=O)Nc2cccc(Cl)c2Cl)c1` [Example 450, 1-(1-(3-(2-amino-2-oxoethyl)phenyl)-3-(2-fluorophenyl)-1H-pyrazol-5-yl)-3-(2,3-dichlorophenyl)urea]: the “% @ concentration, uM” value was determined as 89% in assay [1] (@ 1 uM) and 192% in assay [1] (@ 10 uM). The same compound registered an IC50 in assay [2] of 0.013 µM. For the same compound, at KDR kinase, the inhibition at 10 µM turned out to be 45%.

Regarding `NC(=O)Cc1cccc(-n2nc(-c3cccs3)cc2NC(=O)Nc2cccc(Cl)c2Cl)c1` [Example 451, 1-(1-(3-(2-amino-2-oxoethyl)phenyl)-3-(thiophen-2-yl)-1H-pyrazol-5-yl)-3-(2,3-dichlorophenyl)urea], the “% @ concentration, uM” value in assay [1] (@ 1 uM) amounted to 3% @1. Moreover, the IC50 was 0.008 µM in assay [2] and 0.84 µM on B-Raf(V599E) kinase.

For the compound `CC(C(N)=O)c1cccc(-n2nc(-c3ccsc3)cc2NC(=O)Nc2cccc(Cl)c2Cl)c1` (stereo not drawn) [Example 453, 1-(1-(3-(1-amino-1-oxopropan-2-yl)phenyl)-3-(thiophen-3-yl)-1H-pyrazol-5-yl)-3-(2,3-dichlorophenyl)urea], on KDR kinase, the inhibition at 10 µM stood at 34%.

`O=C(Cc1cccc(-n2nc(-c3ccccc3)cc2NC(=O)Nc2cccc(Cl)c2Cl)c1)NCCO` [Example 454, 1-(2,3-dichlorophenyl)-3-(1-(3-(2-(2-hydroxyethylamino)-2-oxoethyl)phenyl)-3-phenyl-1H-pyrazol-5-yl)urea]: on KDR kinase, the inhibition at 10 µM worked out at 27%.

On to `O=C(Cc1cccc(-n2nc(-c3cccc(F)c3)cc2NC(=O)Nc2cccc(Cl)c2Cl)c1)NCCO` [Example 455, 1-(2,3-dichlorophenyl)-3-(3-(3-fluorophenyl)-1-(3-(2-(2-hydroxyethylamino)-2-oxoethyl)phenyl)-1H-pyrazol-5-yl)urea], for which the IC50 was 0.1 µM in assay [1] and 0.018 µM in assay [2]. In addition, the inhibition at 1 µM on B-Raf(V599E) kinase (setting [3]) stood at 30%.

In the case of `O=C(Cc1cccc(-n2nc(-c3ccccc3F)cc2NC(=O)Nc2cccc(Cl)c2Cl)c1)NCCO` [Example 456, 1-(2,3-dichlorophenyl)-3-(3-(2-fluorophenyl)-1-(3-(2-(2-hydroxyethylamino)-2-oxoethyl)phenyl)-1H-pyrazol-5-yl)urea], the IC50 came out at 0.04 µM in assay [1] and 0.015 µM in assay [2]. The inhibition at 10 µM at KDR kinase stood at 53%.

In the case of `O=C(Cc1cccc(-n2nc(-c3cccs3)cc2NC(=O)Nc2cccc(Cl)c2Cl)c1)NCCO` [Example 457, 1-(2,3-dichlorophenyl)-3-(1-(3-(2-(2-hydroxyethylamino)-2-oxoethyl)phenyl)-3-(thiophen-2-yl)-1H-pyrazol-5-yl)urea], the results for the IC50 in assay [1] and in assay [2] were 1.1 µM and 0.008 µM, respectively. Also, the inhibition at 10 µM at KDR kinase is 31%.

In the case of `O=C(Cc1cccc(-n2nc(-c3ccsc3)cc2NC(=O)Nc2cccc(Cl)c2Cl)c1)NCCO` [Example 458, 1-(2,3-dichlorophenyl)-3-(1-(3-(2-(2-hydroxyethylamino)-2-oxoethyl)phenyl)-3-(thiophen-3-yl)-1H-pyrazol-5-yl)urea], the IC50 in assay [1] amounted to 1 µM; in assay [2], 0.007 µM. For the same compound, the inhibition at 1 µM on B-Raf(V599E) kinase (setting [3]) stood at 28%.

Regarding `O=C(Cc1cccc(-n2nc(-c3cccs3)cc2NC(=O)Nc2cccc(Cl)c2Cl)c1)NCC(O)CO` (stereo not drawn) [Example 460, 1-(2,3-dichlorophenyl)-3-(1-(3-(2-(2,3-dihydroxypropylamino)-2-oxoethyl)phenyl)-3-(thiophen-2-yl)-1H-pyrazol-5-yl)urea], the IC50 in assay [2] turned out to be 0.008 µM; against B-Raf(V599E) kinase it was 2.4 µM. For the same compound, the inhibition at 10 µM on KDR kinase was 26%.

Turning to `O=C(Cc1cccc(-n2nc(-c3ccccc3F)cc2NC(=O)Nc2cccc(Cl)c2Cl)c1)NC(CO)CO` [Example 461, 1-(2,3-dichlorophenyl)-3-(1-(3-(2-(1,3-dihydroxypropan-2-ylamino)-2-oxoethyl)phenyl)-3-(2-fluorophenyl)-1H-pyrazol-5-yl)urea], the values for the IC50 in assay [1] and in assay [2] were 0.017 µM and 0.03 µM, respectively. Also, the inhibition at 10 µM at KDR kinase was 33%; on B-Raf(V599E) kinase (setting [3]), 28%.

Consider `O=C(Cc1cccc(-n2nc(-c3cccs3)cc2NC(=O)Nc2cccc(Cl)c2Cl)c1)NC(CO)CO` [Example 462, 1-(2,3-dichlorophenyl)-3-(1-(3-(2-(1,3-dihydroxypropan-2-ylamino)-2-oxoethyl)phenyl)-3-(thiophen-2-yl)-1H-pyrazol-5-yl)urea], for which the IC50 in assay [2] is 0.008 µM. The inhibition at 10 µM on KDR kinase came to 25%. At B-Raf(V599E) kinase (setting [3]), the inhibition at 1 µM was 43%.

On to `NC(=O)Cc1ccc(-n2nc(-c3cccs3)cc2NC(=O)Nc2cccc(Cl)c2Cl)cc1` [Example 468, 1-(1-(4-(2-amino-2-oxoethyl)phenyl)-3-(thiophen-2-yl)-1H-pyrazol-5-yl)-3-(2,3-dichlorophenyl)urea], for which the IC50 in assay [1] worked out at 0.0086 µM; in assay [2], 0.009 µM; on B-Raf(V599E) kinase it was 1.2 µM.

For the compound `O=C(Nc1cccc(Cl)c1Cl)Nc1cc(-c2ccccc2)nn1-c1cccc(CO)c1` [Example 484, 1-(2,3-dichlorophenyl)-3-(1-(3-(hydroxymethyl)phenyl)-3-phenyl-1H-pyraol-5-yl)urea], the IC50 in assay [2] was found to be 0.009 µM; against B-Raf(V599E) kinase, 7.4 µM. Also, the inhibition at 10 µM at KDR kinase worked out at 37%.

Turning to `O=C(Nc1cccc(Cl)c1Cl)Nc1cc(-c2ccccc2F)nn1-c1cccc(CO)c1` [Example 485, 1-(2,3-dichlorophenyl)-3-(3-(2-fluorophenyl)-1-(3-(hydroxymethyl)phenyl)-1H-pyrazol-5-yl)urea], the IC50 in assay [1] was 0.05 µM. Also, the inhibition at 10 µM on KDR kinase amounted to 79%.

Consider `CC(C)(C)c1cc(NC(=O)Nc2cccc(-c3cnccn3)c2)n(-c2cccc(CC(N)=O)c2)n1` [Example 509, 1-(1-(3-(2-amino-2-oxoethyl)phenyl)-3-tert-butyl-1H-pyrazol-5-yl)-3-(3-(pyrazin-2-yl)phenyl)urea], for which the IC50 was found to be 0.5 µM in assay [1] and 0.28 µM against B-Raf(V599E) kinase. Besides, the “Results, % @ concentration μM” value in assay [2] (@ 1.0 μM) is 57% @1.0.
